# Active and inactive are the calls of the source. For most assays here, no stated cut-off is given here; in the data, actives have a measured EC50 and inactives only a lower limit.
# What was measured:
# Streptokinase A = target: T1, Streptokinase A (Streptococcus pyogenes serotype M1, UniProt P10520); experiment: S. pyogenes streptokinase expression inhibitors, potency, dose response, plasminogen activation absorbance, OD405 (AID 1914); assay type: functional, Streptococcus pyogenes M1 GAS;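 further: secreted streptokinase activity via plasminogen activation per viability signal from cell pellet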
# T1 sequence (P10520 whole entry): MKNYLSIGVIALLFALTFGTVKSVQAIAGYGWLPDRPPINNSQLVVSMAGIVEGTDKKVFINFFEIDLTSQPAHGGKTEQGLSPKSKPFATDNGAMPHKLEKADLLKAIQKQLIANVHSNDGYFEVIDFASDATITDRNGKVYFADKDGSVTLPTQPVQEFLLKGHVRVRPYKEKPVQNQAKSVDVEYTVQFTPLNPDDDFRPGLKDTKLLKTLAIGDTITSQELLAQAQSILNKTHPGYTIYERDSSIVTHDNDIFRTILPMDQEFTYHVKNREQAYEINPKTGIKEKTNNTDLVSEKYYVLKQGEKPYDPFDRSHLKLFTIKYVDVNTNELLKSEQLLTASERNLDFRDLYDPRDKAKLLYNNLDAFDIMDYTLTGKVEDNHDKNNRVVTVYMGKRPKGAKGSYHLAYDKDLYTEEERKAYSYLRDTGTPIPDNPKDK
# [1] = target: T2, Replicative DNA helicase DnaB (Mycobacterium tuberculosis, UniProt P9WMR3); experiment: DnaB intein splicing inhibitors, dose response, biochemical, cell-free fluorescence (AID 449749); assay type: functional
# T2 sequence (P9WMR3 whole entry): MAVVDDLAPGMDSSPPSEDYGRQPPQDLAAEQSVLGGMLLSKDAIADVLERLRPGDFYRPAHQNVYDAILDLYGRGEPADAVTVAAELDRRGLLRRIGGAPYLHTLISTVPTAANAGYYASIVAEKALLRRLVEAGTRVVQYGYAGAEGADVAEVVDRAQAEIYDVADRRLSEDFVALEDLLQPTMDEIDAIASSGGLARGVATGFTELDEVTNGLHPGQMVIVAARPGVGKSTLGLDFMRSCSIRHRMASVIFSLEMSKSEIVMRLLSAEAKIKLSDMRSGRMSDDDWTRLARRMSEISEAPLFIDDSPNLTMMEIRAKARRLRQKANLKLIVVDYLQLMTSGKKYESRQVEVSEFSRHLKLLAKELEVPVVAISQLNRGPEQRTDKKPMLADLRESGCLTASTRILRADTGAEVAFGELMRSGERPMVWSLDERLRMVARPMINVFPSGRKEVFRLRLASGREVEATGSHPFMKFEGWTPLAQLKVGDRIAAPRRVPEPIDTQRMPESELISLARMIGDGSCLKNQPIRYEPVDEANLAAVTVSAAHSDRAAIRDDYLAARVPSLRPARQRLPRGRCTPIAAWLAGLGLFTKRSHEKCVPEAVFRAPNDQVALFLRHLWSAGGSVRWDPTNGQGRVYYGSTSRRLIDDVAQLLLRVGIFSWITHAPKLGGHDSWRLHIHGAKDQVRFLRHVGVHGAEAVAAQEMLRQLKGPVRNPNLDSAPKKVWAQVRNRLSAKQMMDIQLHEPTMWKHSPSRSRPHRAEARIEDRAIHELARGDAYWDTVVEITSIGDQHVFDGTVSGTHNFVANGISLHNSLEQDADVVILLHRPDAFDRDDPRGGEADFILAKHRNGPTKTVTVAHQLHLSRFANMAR
# Streptococcus = experiment: Group A Streptococcus viability loss, dose response, counter-screen for streptokinase expression inhibitor project, luminescence, BacTiterGlo (AID 1915); assay type: functional, organism-based;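 further: potency for reduction of bacterial viability or growth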
# Genome polyprotein = Genome polyprotein (dengue virus type 2, UniProt P29990); experiment: Dengue-2 NS5 methyltransferase inhibitors, primary screen, biochemical, confirmation dose response (AID 588689); assay type: functional
# Protein RecA = target: T3, Protein RecA (Mycobacterium tuberculosis, UniProt P9WHJ3); experiment: Fluorescence Cell-Free Homogeneous Dose Retest to Identify Inhibitors of RecA-Intein Splicing Activity. [Related pubchem assays (depositor defined):AID2097, AID2223, AID489010, AID492950]; assay type: functional
# T3 sequence (P9WHJ3 whole entry): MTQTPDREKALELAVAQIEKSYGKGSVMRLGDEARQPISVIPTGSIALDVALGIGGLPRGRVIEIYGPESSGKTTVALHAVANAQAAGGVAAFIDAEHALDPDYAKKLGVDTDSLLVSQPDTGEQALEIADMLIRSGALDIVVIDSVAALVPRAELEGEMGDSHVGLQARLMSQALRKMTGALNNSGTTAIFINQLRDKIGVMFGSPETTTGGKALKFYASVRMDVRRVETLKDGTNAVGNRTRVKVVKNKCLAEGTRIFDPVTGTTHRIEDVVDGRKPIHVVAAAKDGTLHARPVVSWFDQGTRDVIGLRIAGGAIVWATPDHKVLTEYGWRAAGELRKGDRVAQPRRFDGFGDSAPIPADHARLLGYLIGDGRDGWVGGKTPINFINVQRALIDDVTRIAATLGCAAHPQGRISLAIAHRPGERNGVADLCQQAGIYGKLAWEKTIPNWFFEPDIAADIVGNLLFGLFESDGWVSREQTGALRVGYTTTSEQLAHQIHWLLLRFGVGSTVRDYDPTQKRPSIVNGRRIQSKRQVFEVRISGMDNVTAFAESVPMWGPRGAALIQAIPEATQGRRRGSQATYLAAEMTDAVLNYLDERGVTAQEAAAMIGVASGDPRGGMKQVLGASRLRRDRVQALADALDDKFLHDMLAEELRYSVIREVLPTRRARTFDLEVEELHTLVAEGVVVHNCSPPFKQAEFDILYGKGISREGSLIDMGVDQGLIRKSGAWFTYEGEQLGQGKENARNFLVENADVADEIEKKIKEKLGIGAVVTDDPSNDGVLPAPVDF
# [2] = tested on: Streptococcus sp. 'group A'; experiment: growth inhibition of control SK(-) GAS strain, dose response, counter-screen for streptokinase expression inhibitor project, luminescence, kanamycin, BacTiterGlo, confirmation (AID 1900); assay type: functional, organism-based
# [3] = cytotoxicity toward NIH3T3 fibroblasts, dose response, counter-screen, cell-based, ATP luminescence, mouse fibroblasts (AID 2010); assay type: functional;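 further: cells exposed to compound for about 90 hours before reading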
# [4] = target: T4, Tyrosyl-DNA phosphodiesterase 2 (Homo sapiens, UniProt O95551); experiment: human TDP2 enzyme inhibitors, dose response, biochemical, epi absorbance, IC50 (AID 743297)
# T4 sequence (O95551 whole entry): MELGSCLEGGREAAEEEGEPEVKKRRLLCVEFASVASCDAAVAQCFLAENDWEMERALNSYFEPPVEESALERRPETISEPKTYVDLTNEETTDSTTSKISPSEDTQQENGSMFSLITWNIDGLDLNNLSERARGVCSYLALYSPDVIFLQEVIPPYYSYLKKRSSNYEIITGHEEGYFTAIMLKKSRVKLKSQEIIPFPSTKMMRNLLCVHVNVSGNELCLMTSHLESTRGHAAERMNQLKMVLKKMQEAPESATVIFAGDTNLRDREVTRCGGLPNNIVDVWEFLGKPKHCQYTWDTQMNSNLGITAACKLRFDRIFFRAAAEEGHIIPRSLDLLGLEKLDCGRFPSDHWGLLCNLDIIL
# [5] = inhibitors of intracellular T. cruzi replication, confirmation, NIH3T3 host cells, beta-gal luminescence (AID 2044); assay type: functional, cell-based;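 further: intracellular parasites grown in NIH/3T3 mouse fibroblasts as host cells; luminescent beta-galactosidase reporter signal from transgenic T. cruzi replicating inside host cells; inhibitors lower the luminescence signal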
# INS1 = experiment: beta cell apoptosis inhibitors, cytokine rescue, dose response, luminescence, retest (AID 449756); assay type: functional, cell-based; details: Rattus norvegicus;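 further: cell death triggered by IL-1 beta plus TNF-alpha plus IFN-gamma mixture; protective hits raise ATP signal compared with cytokine alone wells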
# Chain of Genome polyprotein (P29990 2492-3391 limits assumed): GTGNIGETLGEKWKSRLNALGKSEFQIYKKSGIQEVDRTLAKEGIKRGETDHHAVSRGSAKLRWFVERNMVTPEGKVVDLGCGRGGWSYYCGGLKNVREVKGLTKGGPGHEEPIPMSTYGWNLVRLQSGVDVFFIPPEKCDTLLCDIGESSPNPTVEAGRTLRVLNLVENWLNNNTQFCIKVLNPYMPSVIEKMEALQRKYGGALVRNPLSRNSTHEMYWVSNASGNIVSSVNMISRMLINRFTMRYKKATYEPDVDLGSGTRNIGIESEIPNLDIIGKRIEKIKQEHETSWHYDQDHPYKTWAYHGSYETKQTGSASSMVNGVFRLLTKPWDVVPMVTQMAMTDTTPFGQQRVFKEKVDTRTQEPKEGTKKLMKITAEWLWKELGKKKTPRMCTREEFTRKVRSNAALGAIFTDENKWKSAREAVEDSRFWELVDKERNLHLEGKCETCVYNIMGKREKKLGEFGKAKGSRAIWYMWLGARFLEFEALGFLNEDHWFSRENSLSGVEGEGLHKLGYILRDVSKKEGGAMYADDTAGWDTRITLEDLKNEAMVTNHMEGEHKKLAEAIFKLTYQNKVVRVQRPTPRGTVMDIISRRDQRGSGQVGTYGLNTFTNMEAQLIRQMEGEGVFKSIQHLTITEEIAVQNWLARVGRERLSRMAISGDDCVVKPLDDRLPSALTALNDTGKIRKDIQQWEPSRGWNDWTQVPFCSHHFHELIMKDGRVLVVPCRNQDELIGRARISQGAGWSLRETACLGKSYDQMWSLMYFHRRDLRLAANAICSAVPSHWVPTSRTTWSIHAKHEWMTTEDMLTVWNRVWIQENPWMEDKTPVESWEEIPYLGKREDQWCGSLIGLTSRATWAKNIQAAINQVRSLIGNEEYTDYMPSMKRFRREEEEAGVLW
Structure (SMILES),EC50 (Streptokinase A),AC50 [1],EC50 (Streptococcus),IC50 (Genome polyprotein),EC50 (Protein RecA),EC50 [2],EC50 [3],IC50 [4],EC50 [5],AC50 (INS1)
CCc1nnc(NS(=O)(=O)c2ccc(NC(=S)NC(=O)/C=C/c3ccc(C(C)C)cc3)cc2)s1,4440 nM (active),3150 nM (active),7830 nM (active),50000 nM (active),33400 nM (active),2390 nM (active),,,,
O=C1C(Nc2ccc(O)cc2)=C/C(=N/S(=O)(=O)c2cccs2)c2ccccc21,> 150000 nM (not active),128 nM (active),7100 nM (active),,123 nM (active),1680 nM (active),486 nM (active),698 nM (active),550 nM (active),
COC(=O)C(O)(c1c(C)[nH]n(-c2ccccc2)c1=O)C(F)(F)F (stereo not given),,< 18 nM (active),,,3740 nM (active),,,12700 nM (inactive),,
COc1ccc(S(=O)(=O)Nc2cc(SCC(=O)O)c(O)c3ccccc23)cc1,,885 nM (active),,7220 nM (active),234 nM (active),,,75900 nM (inactive),,4090 nM (active)
CC1CC(=O)c2c(cc3c(-c4c(O)cc(O)c5c(O)c6c(cc45)OC(C)CC6=O)c(O)cc(O)c3c2O)O1 (stereo not given) [CEPHALOCHROMIN],> 150000 nM (not active),1780 nM (active),991 nM (active),,1570 nM (active),348 nM (active),8420 nM (active),,373 nM (active),3390 nM (active)
